# Measurements: patent publication US20030125287A1, “Antisense oligonucleotides and methods to induce tumor cell death” (Hybridon, Inc., priority 2001, published 2003)
# “Also recorded” adds a separate entry of the source. Oligonucleotides are written 5' to 3', each unit as a sugar letter and its base; * is a phosphorothioate linkage, no mark a phosphodiester; rarer units and linkages stand in square brackets, end groups in braces. Plain capitals give the bases only. d = 2'-deoxy (DNA)
# Tests used:
# caspase-3 [1] = experiment: Caspase-3 activity assay in MSN cells; format: cell-based, human
# Protocol: MSN cells were treated with lipofectin, 400 nM survivin antisense oligonucleotide 903, 904, or mismatched oligonucleotide 1132, for a 48 hour period. Cell pellets were washed twice in cold PBS and re-suspended in ice-cold hypotonic cell lysis buffer (25 mM HEPES, pH 7.5, 5 mM MgCl2, 5 mM EDTA, 5 mM DTT, 2 mM PMSF, 10 μg/ml pepstatin A, 10 μg/ml leupeptin). Re-suspended pellets were incubated on ice for 20 min, followed by brief sonication for two seconds. Lysates were centrifuged at 14,000 rpm for 20 minutes at 4° C. The supernatant was retained and the protein concentration analyzed by the Bio-Rad protein assay described above.
# Supernatants were assayed in triplicate, with and without the caspase-3 inhibitor, Ac-DEVD-CHO, using black opaque, 96 well, flat bottom plates (Greiner Laboratories, USA Scientific Inc., Orlando, Fla.). 50-100 μg of the supernatant was incubated in caspase-3 assay buffer (100 mM HEPES, pH 7.5, 10% sucrose, 0.1% CHAPS and 10 mM DTT) with either 2 μl of DMSO or 2 μl of 2.5 mM Ac-DEVD-CHO (Pharmingen, San Diego, Calif.) so that the final concentration of the inhibitor was 50 μM in a final volume of 100 μl. It was then incubated at 30° C. for 30 minutes. Subsequently, 2 μl of the caspase-3 substrate 2.5 mM Ac-DEVD-AMC (Pharmingen, San Diego, Calif.) (final concentration 50 μM)) was added to each well. Plates were incubated at 30° ° C. for 60 minutes in the dark.
# Fluorescence of the reaction was measured using a SPECTRAmax GEMINI spectrofluorometer using SOFTmax® PRO software (Molecular Devices, Sunnyvale, Calif.) at an excitation wavelength of 355 nm and an emission wavelength of 460 nm with a cutoff filter of 455 nm. The data is presented as the ratio of the mean relative fluorescence units/mg protein±SD.
# survivin [2] = experiment: Western blot of survivin protein in nocodazole-treated TC620 cells; format: cell-based, human; settings: nocodazole 10 μM, 24 h
# Protocol: The Western blot as represented in FIG. 2B was prepared by isolating total protein from nocadozole-treated (10 μM, 24 h) and untreated TC620 cells, MSN cells, and Jurkat cells. Each lane had 75 μg of total protein.
# (§1) To block cells in G2/Ml MSN cells or TC620 cells were treated with 10 μM nocodazole, 1 μM taxotere, or 250 nM vinblastine for 16 hours, at which time total protein homogenates were isolated and proteins were examined following sodium dodecyl sulfate-polyacrylamide gel electrophoresis (SDS-PAGE) and immunoblotting.
# survivin [3] = experiment: Western blot of survivin protein in MSN cells treated with cell cycle checkpoint blockers; format: cell-based, human; settings: for fold increase of survivin protein relative to DMSO or EtOH: MSN cells, vinblastine 250 nM, nocadozole 10 μM, taxotere 1 μM; for survivin expression / survivin protein abundance after cell cycle blocker: result in words, cell line not given
# Protocol: Total protein was isolated from MSN cells either untreated or treated with vinblastine (250 nM), nocadozole (10 μM), or taxotere (1 μM). DMSO and ethanol (EtOH) were added as carriers. Each lane had 75 μg of total protein. The blots were cut at 32.9 kD, and the bottom blots were incubated with a survivin polyclonal antibody (1:500), while the top blot was incubated with a β-tubulin mAb (1:1000). In each of the treatments, the fold increase of survivin protein relative to DMSO or EtOH was vinblastine, 1.9; nocadozole, 2.6; taxotere, 1.7.
# as §1
# (§2) Ten micrograms of the fusion protein was incubated with the survivin antibody (1:500) at 4° C. for 2 hours to overnight prior to immunoblotting. […] Blots were cut at 32.9 kD, and the bottom part of the blots were incubated with the survivin antibody overnight at 4° C. and visualized by enhanced chemiluminescence (Enhanced Chemiluminescence, Amersham, Arlington Heights, Ill.) as previously described (Sharma et al. Cell. Motil. Cytoskeleton 27:234-247).
# MSN cells = experiment: Flow cytometry of MSN cells treated with G2/M blockers; format: cell-based, human
# Protocol: Next, the regulation of survivin expression at G2/M cell cycle checkpoints was evaluated. First, survivin expression was increased following treatment with the G2/M checkpoint blockers, vinblastine, nocodazole, and taxotere.
# PARP = PARP cleavage immunoblot in MSN cells; format: cell-based, human
# Protocol: To determine whether MSN cell death by survivin antisense oligonucleotides was mediated by caspase-3 activation, studies were conducted to examine whether PARP was cleaved following survivin antisense treatment. […] Since no PARP cleavage was detected, further tests were conducted to determine whether survivin antisense-treated cells have any active caspase-3.
# XIAP = settings: MSN cells; 400 nM; 48 hours (FIG. 10A)
# Protocol: MSN cells were treated with lipofectin or 400 nM survivin antisense oligonucleotides 900, 901, 903, 904, 905 and 906. Total protein was isolated 48 hours after treatment, and 100 μg of protein was loaded per lane. The blot was incubated with a monoclonal antibody against XIAP (1:1000; IgG1). Visualization was by enhanced chemiluminescence (ECL). […] The experiment was performed twice.
# Total protein homogenates were prepared according to a previously described procedure (Albala et al. (1995) J. Neurochem. 64:2480-2490). Protein content was measured using the Bio-Rad detection system (Bio-Rad Laboratories, Hercules, Calif.). Equal amounts of protein were analyzed by SDS-PAGE on 10% gels (Laemmli (1970) Nature 227:680-685). The resolved polypeptides were electrophoretically transferred to nitrocellulose (Towbin et al. (1979) Proc. Natl. Acad. Sci. USA 76:4350-4354).
# Survivin polyclonal antibody was purchased from R & D Systems, Inc. (Minneapolis, Minn.). […] A generic β-tubulin monoclonal antibody (TUB 2.1) was purchased from SIGMA (St. Louis, Mo.). The XIAP mAb was purchased from StressGen Biotechnologies Corp. (Victoria, Canada). The poly-ADP ribosyl polymerase (PARP) mAb was purchased from PharMingen/Transduction Laboratories (San Diego, Calif.).
# survivin [4] = experiment: Western blot of survivin protein in antisense oligonucleotide-treated MSN cells; format: cell-based, human
# Protocol: Six survivin (900-906) antisense oligonucleotides were administered at 400 nM to MSN cells in the presence of lipofectin for 48 hours. Each lane has 100 μg of protein. The blots were cut at 32.9 kD and the bottom incubated with the survivin polyclonal antibody (1:500), while the top was incubated with β-tubulin.
# Since survivin antisense oligonucleotide 903 decreased survivin protein levels by 76%, the dose dependency of 903 on survivin protein levels was further studied. As expected, mismatched oligonucleotides had no effect on the relative abundance of survivin. […] In the presence of lipofectin, survivin antisense oligonucleotide 903 was administered to MSN cells for 48 hours at 50 nM to 200 nM. Total protein (100 μg) was loaded/lane.
# Survivin antisense oligonucleotide 904 decreased survivin protein levels by 46% and 60% while survivin levels were unchanged in cells incubated with the mismatched oligonucleotide 1132. MSN cells were treated with lipofectin, survivin antisense oligonucleotide 904 or 908 at 400 nM and 600 nM, or mismatched oligonucleotide 1132 at 400 nM concentrations. Total protein (100 μg) was separated by SDS polyacrylamide gel electrophoresis and transferred to a nitrocellulose support. The blots were cut at 32.9 kD and the bottom blots incubated with the survivin polyclonal antibody (1:500), while the top blots were incubated with tubulin.
# The antisense oligonucleotides were synthesized on solid support with an automated DNA synthesizer using β-cyanoethylphosphoramidite chemistry. In order to prevent rapid degradation of the antisense oligonucleotides by cellular nucleases, oxidation was carried out with Becauge sulfurizing agent to obtain phosphorothioate backbone modified oligonucleotides. After their synthesis, the oligonucleotides were released from the solid support, deprotected, purified by reverse-phase HPLC, desalted, filtered and lyophilized. The purity and sequence integrity of oligonucleotides was ascertained by capillary gel electrophoresis and MALDI-TOF mass spectral analysis and the concentrations measured at […]. Cells were grown in 100 mm dishes and oligonucleotide treatment was performed on subconfluent cultures in the presence of Lipofectin (GIBCO) according to the manufacturer. Forty-eight hours following treatment, total protein homogenates were isolated.
# as §2
# caspase-3 [5] = experiment: Caspase-3 activity assay in MSN cells; format: cell-based, human; remark: listed apart in the source
# [6] = 400 nM, lipofectin, 48 hours (FIG. 3A)
compound,measurement,setting,value
Ac-DEVD-CHO [reference compound],effect of caspase-3 inhibitor on caspase-3 activation in the assay,"caspase-3 [1]; added to MSN cell supernatants, final concentration 50 μM",eliminated caspase-3 activation
COC(=O)Nc1nc2ccc(C(=O)c3cccs3)cc2[nH]1 [nocodazole],fold increase in survivin protein,survivin [2],1.6 fold
same,fold increase of survivin protein relative to DMSO or EtOH,survivin [3],2.6 fold
same,survivin expression / survivin protein abundance after cell cycle blocker,survivin [3],increased
CC[C@]1(O)C[C@@H]2CN(CCc3c([nH]c4ccccc34)[C@@](C(=O)OC)(c3cc4c(cc3OC)N(C)[C@H]3[C@@](O)(C(=O)OC)[C@H](OC(C)=O)[C@]5(CC)C=CCN6CC[C@]43[C@@H]65)C2)C1 [vinblastine],cell cycle phase by flow cytometry,MSN cells,blocked at the G2/M cell cycle phase
same,fold increase of survivin protein relative to DMSO or EtOH,survivin [3],1.9 fold
same,survivin expression / survivin protein abundance after cell cycle blocker,survivin [3],increased
"d(CCCTAGCTCACACTCTCATT) (antisense dC*dC*dC*dT*dA*dG*dC*dT*dC*dA*dC*dA*dC*dT*dC*dT*dC*dA*dT*dT) [Oligo 903, 20-mer phosphorothioate survivin antisense oligonucleotide, complementary to survivin mRNA 4385-4404]","PARP cleavage, words",PARP,"did not activate caspase-3 or cleave the caspase-3 substrate, PARP"
same,fold change of XIAP protein over β-tubulin relative to lipofectin,XIAP,5.2 fold
same,caspase-3 activity,"caspase-3 [1]; MSN cells, 400 nM, 48 hours",no significant increase in caspase-3 activity; also recorded: did not activate caspase-3
same,"caspase-3 activity, Relative units/mg protein +/− SD","caspase-3 [1]; MSN cells, 400 nM, 48 hours, triplicate","27,850 ± 2311 Relative units/mg protein"
same,percentage of survivin protein over β-tubulin relative to lipofectin,"survivin [4]; 50 nM, 48 hours (FIG. 3B)",83.9%
same,percentage of survivin protein over β-tubulin relative to lipofectin,"survivin [4]; 75 nM, 48 hours (FIG. 3B)",62.6%
same,percentage of survivin protein over β-tubulin relative to lipofectin,"survivin [4]; 100 nM, 48 hours (FIG. 3B)",95.6%
same,percentage of survivin protein over β-tubulin relative to lipofectin,"survivin [4]; 200 nM, 48 hours (FIG. 3B)",48.5%
same,reduction in survivin,"survivin [4]; 200 nM, 48 hours (FIG. 3B)",51%
same,"decrease in survivin protein levels relative to lipofectin-treated control, normalized to β-tubulin","survivin [4]; 400 nM, 48 hours (FIG. 3A)",76%
same,percentage of survivin protein over β-tubulin relative to lipofectin,survivin [4]; [6],24.3%
same,effect on survivin protein levels,"survivin [4]; lipofectin, 48 hours",concentration-dependent decrease in survivin protein levels
"d(GCCAGTTCTTGAATGTAGAG) (antisense dG*dC*dC*dA*dG*dT*dT*dC*dT*dT*dG*dA*dA*dT*dG*dT*dA*dG*dA*dG) [Oligo 900, 20-mer phosphorothioate survivin antisense oligonucleotide, complementary to survivin mRNA 2867-2886]",fold change of XIAP protein over β-tubulin relative to lipofectin,XIAP,2.3 fold
same,percentage of survivin protein over β-tubulin relative to lipofectin,survivin [4]; [6],77.7%
d(GAGCCTTCCTCTTCATGTCC) (antisense dG*dA*dG*dC*dC*dT*dT*dC*dC*dT*dC*dT*dT*dC*dA*dT*dG*dT*dC*dC) [Oligo 905],fold change of XIAP protein over β-tubulin relative to lipofectin,XIAP,7.6 fold
"d(CAGTGGATGAAGGCAGCCTC) (antisense dC*dA*dG*dT*dG*dG*dA*dT*dG*dA*dA*dG*dG*dC*dA*dG*dC*dC*dT*dC) [Oligo 901, 20-mer phosphorothioate survivin antisense oligonucleotide, complementary to survivin mRNA 3180-3199]",fold change of XIAP protein over β-tubulin relative to lipofectin,XIAP,3.9 fold
same,percentage of survivin protein over β-tubulin relative to lipofectin,survivin [4]; [6],38.3%
CC(=O)O[C@@]12CO[C@@H]1C[C@H](O)[C@@]1(C)C(=O)[C@H](O)C3=C(C)[C@@H](OC(=O)[C@H](O)[C@@H](NC(=O)OC(C)(C)C)c4ccccc4)C[C@@](O)([C@@H](OC(=O)c4ccccc4)[C@H]21)C3(C)C [taxotere],cell cycle phase by flow cytometry,MSN cells,blocked at the G2/M cell cycle phase
same,fold increase of survivin protein relative to DMSO or EtOH,survivin [3],1.7 fold
same,survivin expression / survivin protein abundance after cell cycle blocker,survivin [3],increased
CN[C@@H]1C[C@H]2O[C@@](C)([C@@H]1OC)n1c3ccccc3c3c4c(c5c6ccccc6n2c5c31)C(=O)NC4 [Staurosporine],"caspase-3 activity, Relative units/mg protein +/− SD","caspase-3 [5]; 1 μM, 6 hours, triplicate","264,281 ± 8130 Relative units/mg protein"
same,fold increase in caspase-3 activity,caspase-3 [5]; staurosporine treatment,over 7 fold
CN1CC[C@H](c2c(O)cc(O)c3c(=O)cc(-c4ccccc4Cl)oc23)[C@H](O)C1 [flavopiridol],survivin expression / survivin protein abundance after cell cycle blocker,survivin [3],did not alter survivin protein abundance
